Among the data in patent publication US7276502B2, “Thiazoles useful as inhibitors of protein kinases” (Vertex Pharmaceuticals Incorporated, priority 2003, dated 2007) are Ki values, retold here.

Experiment [1] has as its target T1, ZAP-70 (Homo sapiens, UniProt P43403).
T1 sequence (P43403 1-619): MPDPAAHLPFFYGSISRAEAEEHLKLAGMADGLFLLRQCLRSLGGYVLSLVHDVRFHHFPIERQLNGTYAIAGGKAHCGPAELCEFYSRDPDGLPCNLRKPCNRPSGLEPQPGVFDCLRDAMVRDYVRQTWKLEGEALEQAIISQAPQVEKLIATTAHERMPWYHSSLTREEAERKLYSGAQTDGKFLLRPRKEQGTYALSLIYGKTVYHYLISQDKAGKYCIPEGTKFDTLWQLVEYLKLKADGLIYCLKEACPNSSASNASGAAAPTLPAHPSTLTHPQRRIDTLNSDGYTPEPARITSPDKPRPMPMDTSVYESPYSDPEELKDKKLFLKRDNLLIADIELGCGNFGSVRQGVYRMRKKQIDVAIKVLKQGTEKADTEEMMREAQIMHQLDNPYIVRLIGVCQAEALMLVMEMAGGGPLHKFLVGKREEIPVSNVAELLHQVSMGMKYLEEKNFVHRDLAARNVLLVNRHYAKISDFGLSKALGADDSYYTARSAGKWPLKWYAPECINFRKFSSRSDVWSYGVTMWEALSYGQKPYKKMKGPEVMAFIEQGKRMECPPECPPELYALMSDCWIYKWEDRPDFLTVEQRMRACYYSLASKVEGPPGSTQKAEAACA
In words: ZAP-70 inhibition assay (standard coupled enzyme assay). Conditions: 100 μM ATP, 20 μM poly-4EY peptide, 30° C., 60 nM ZAP-70. The format is biochemical. The method, then:
Compounds were screened for their ability to inhibit ZAP-70 using a standard coupled enzyme assay (Fox et al., Protein Sci. 1998, 7, 2249). Assays were carried out in a mixture of 100 mM HEPES (pH 7.5), 10 mM MgCl2, 25 mM NaCl, 2 mM DTT and 3% DMSO. Final substrate concentrations in the assay were 100 μM ATP (Sigma Chemicals) and 20 μM peptide (poly-4EY, Sigma Chemicals). Assays were carried out at 30° C. and 60 nM ZAP-70. Final concentrations of the components of the coupled enzyme system were 2.5 mM phosphoenolpyruvate, 300 μM NADH, 30 μg/ml pyruvate kinase and 10 μg/ml lactate dehydrogenase.
An assay stock buffer solution was prepared containing all of the reagents listed above, with the exception of ZAP-70 and the test compound of interest of the present invention. 55 μl of the stock solution was placed in a 96 well plate followed by addition of 2 μl of DMSO stock containing serial dilutions of the test compound of the present invention (typically starting from a final concentration of 15 μM). The plate was preincubated for 10 minutes at 30° C. and the reaction initiated by addition of 10 μl of enzyme (final concentration 60 nM). Initial reaction rates were determined with a Molecular Devices SpectraMax Plus plate reader over a 15 minute time course. Ki data was calculated from non-linear regression analysis using the Prism software package (GraphPad Prism version 3.0a for Macintosh, GraphPad Software, San Diego Calif., USA).

For experiment [2], the target named is SYK (Homo sapiens, UniProt P43405). As to the kind of experiment: SYK inhibition assay (standard coupled enzyme assay). The format is biochemical. Here is the method: Reactions were carried out in 100 mM HEPES (pH 7.5), 10 mM MgCl2, 25 mM NaCl, 1 mM DTT and 1.5% DMSO. Final substrate concentrations in the assay were 200 μM ATP (Sigma chemical Co.) and 4 μM poly Gly-Tyr peptide (Sigma Chemical Co.). Assays were carried out at 30° C. and 200 nM SYK. Final concentrations of the components of the coupled enzyme system were 2.5 mM phosphoenolpyruvate, 300 μM NADH, 30 μg/ml pyruvate kinase and 10 μg/ml lactate dehydrogenase.
An assay stock buffer solution was prepared containing all of the reagents listed above, with the exception of SYK, DTT, and the test compound of interest of the present invention. 56 μl of the test reaction was placed in a 96 well plate followed by the addition of 1 μl of 2 mM DMSO stock containing the test compound of the present invnetion (final compound concentration 30 μM).

The mark [3] stands for this setting: coupled enzyme assay, 200 μM ATP, 4 μM poly Gly-Tyr peptide, 30° C., read-out: Ki (SYK).

pKi: −log10 of the molar value. Where two headings read alike, the source gives them in different places.

Take `Cc1cc(C)cc(Nc2nccc(-c3nc(CBr)cs3)n2)c1` [Example I-64]: the pKi in experiment [1] and in experiment [2] (setting [3]) was at least 5.30 each time.
Regarding `COCc1csc(-c2ccnc(Nc3cc(C)cc(C)c3)n2)n1` [Example I-66], the pKi in experiment [1] and in experiment [2] (setting [3]) was at least 5.30 in each case.
As for `Cc1cc(C)cc(Nc2nccc(-c3nc(C)c(C)s3)n2)c1` [Example I-70], the pKi in experiment [1] and in experiment [2] (setting [3]) was at least 5.30 throughout.
As for `Cc1cc(C)cc(Nc2nccc(-c3ncc(Br)s3)n2)c1` [Example I-71], the pKi in experiment [1] and in experiment [2] (setting [3]) was at least 5.30 in each case.
`CC(=O)OCc1cnc(-c2ccnc(Nc3cc(C)cc(C)c3)n2)s1` [Example I-72]: the pKi in experiment [1] and in experiment [2] (setting [3]) was at least 5.30 in each case.
In the case of `OCc1csc(-c2ccnc(Nc3cccc(OCc4ccccc4)c3)n2)n1` [Example I-73], the pKi in experiment [1] and in experiment [2] (setting [3]) was at least 5.30 throughout.
With `Cc1cc(C)cc(Nc2nccc(-c3ncc(N4CCCCC4)s3)n2)c1` [Example I-74], the pKi in experiment [1] and in experiment [2] (setting [3]) was at least 5.30 in each case.
Take `CCc1cnc(-c2ccnc(Nc3cc(C)cc(C)c3)n2)s1` [Example I-75]: the pKi in experiment [1] and in experiment [2] (setting [3]) was at least 5.30 each time.
Turning to `Cc1cc(C)cc(Nc2nccc(-c3nc(CN)cs3)n2)c1` [Example I-76], the pKi in experiment [1] and in experiment [2] (setting [3]) was at least 5.30 each time.
`Cc1cc(C)cc(Nc2nccc(-c3nc(COC(N)=O)cs3)n2)c1` [Example I-77]: the negative-log Ki (pKi) in experiment [1] and in experiment [2] (setting [3]) was at least 5.30 throughout.
Take `CC(=O)Nc1cccc(Nc2nccc(-c3ncc(C)s3)n2)c1` [Example I-78]: the pKi in experiment [1] and in experiment [2] (setting [3]) was at least 5.30 each time.
With `Cc1cnc(-c2ccnc(Nc3ccc([N+](=O)[O-])cc3)n2)s1` [Example I-79], the pKi in experiment [1] and in experiment [2] (setting [3]) was at least 5.30 throughout.
As to `Cc1cnc(-c2ccnc(NC3CCCC3)n2)s1` [Example I-81], the pKi in experiment [1] and in experiment [2] (setting [3]) was at least 5.30 throughout.
For `COc1cc(Nc2nccc(-c3ncc(CO)s3)n2)cc(C(F)(F)F)c1` [Example I-83], the pKi in experiment [1] and in experiment [2] (setting [3]) was at least 5.30 throughout.
With `COc1cc(Nc2nccc(-c3nc(CO)cs3)n2)cc(C(F)(F)F)c1` [Example I-84], the pKi in experiment [1] and in experiment [2] was at least 5.30 throughout.
Regarding `CCCc1cnc(-c2ccnc(Nc3cc(C)cc(C)c3)n2)s1` [Example I-85], the pKi in experiment [1] and in experiment [2] (setting [3]) was at least 5.30 in each case.
With `Cc1cc(C)cc(Nc2nccc(-c3ncc(CN4CCC[C@H]4CO)s3)n2)c1` [Example I-86], the pKi in experiment [1] and in experiment [2] (setting [3]) was at least 5.30 each time.
On to `Cc1cc(C)cc(Nc2nccc(-c3ncc(CN(C)CCO)s3)n2)c1` [Example I-87], for which the negative-log Ki (pKi) in experiment [1] and in experiment [2] (setting [3]) was at least 5.30 in each case.
Regarding `Cc1cc(C)cc(Nc2nccc(-c3ncc(CNCCCO)s3)n2)c1` [Example I-88], the pKi in experiment [1] and in experiment [2] (setting [3]) was at least 5.30 in each case.
Take `Cc1cnc(-c2ccnc(Nc3cc(N)cc(C(F)(F)F)c3)n2)s1` [Example I-89]: the pKi in experiment [1] and in experiment [2] (setting [3]) was at least 5.30 each time.
`Cc1cnc(-c2ccnc(Nc3cccc(C#N)c3)n2)s1` [Example I-90]: the pKi in experiment [1] and in experiment [2] (setting [3]) was at least 5.30 each time.
Consider `Cc1cnc(-c2ccnc(Nc3ccc(N4CCOCC4)cc3)n2)s1` [Example I-91], for which the pKi in experiment [1] and in experiment [2] (setting [3]) was at least 5.30 throughout.
Take `Cc1cnc(-c2ccnc(Nc3ccc(N(C)C)cc3)n2)s1` [Example I-92]: the pKi in experiment [1] and in experiment [2] (setting [3]) was at least 5.30 throughout.
As to `Cc1cc(C)cc(Nc2nccc(-c3ncc(N4CCNCC4)s3)n2)c1` [Example I-93], the pKi in experiment [1] and in experiment [2] (setting [3]) was at least 5.30 throughout.
Consider `Cc1cc(C)cc(Nc2nccc(-c3ncc(N(C)C)s3)n2)c1` [Example I-94], for which the pKi in experiment [1] and in experiment [2] (setting [3]) was at least 5.30 each time.
`Cc1cnc(-c2ccnc(Nc3ccccc3Oc3ccccc3)n2)s1` [Example I-95]: the pKi in experiment [1] and in experiment [2] (setting [3]) was at least 5.30 in each case.
In the case of `Cc1cnc(-c2ccnc(Nc3ccc(F)cc3F)n2)s1` [Example I-97], the pKi in experiment [1] and in experiment [2] (setting [3]) was at least 5.30 throughout.
Take `Cc1cnc(-c2ccnc(Nc3c(C)cccc3C)n2)s1` [Example I-100]: the pKi in experiment [1] and in experiment [2] (setting [3]) was at least 5.30 each time.
Take `Cc1cnc(-c2ccnc(Nc3ccc(O)c(C)c3)n2)s1` [Example I-102]: the pKi in experiment [1] and in experiment [2] (setting [3]) was at least 5.30 in each case.
With `CCCc1ccccc1Nc1nccc(-c2ncc(C)s2)n1` [Example I-103], the pKi in experiment [1] and in experiment [2] (setting [3]) was at least 5.30 in each case.
Turning to `COC(=O)c1ccc(Nc2nccc(-c3ncc(C)s3)n2)cc1C` [Example I-106], the pKi in experiment [1] and in experiment [2] (setting [3]) was at least 5.30 each time.
On to `Cc1cnc(-c2ccnc(Nc3cc(O)cc(C(F)(F)F)c3)n2)s1` [Example I-109], for which the pKi in experiment [1] and in experiment [2] (setting [3]) was at least 5.30 throughout.
For `Cc1cnc(-c2ccnc(Nc3ccc(NC(=O)OC(C)(C)C)cc3)n2)s1` [Example I-110], the pKi in experiment [1] and in experiment [2] (setting [3]) was at least 5.30 each time.
On to `Cc1cnc(-c2ccnc(Nc3cccc(CO)c3)n2)s1` [Example I-111], for which the pKi in experiment [1] and in experiment [2] (setting [3]) was at least 5.30 throughout.
On to `Cc1cnc(-c2ccnc(Nc3ccc4sc(C)nc4c3)n2)s1` [Example I-114], for which the pKi in experiment [1] and in experiment [2] (setting [3]) was at least 5.30 in each case.
As to `CNC(=O)c1cnc(-c2ccnc(Nc3cc(C)cc(C)c3)n2)s1` [Example I-115], the pKi in experiment [1] and in experiment [2] (setting [3]) was at least 5.30 in each case.
With `CC(=O)c1ccc(Nc2nccc(-c3ncc(C)s3)n2)cc1` [Example I-116], the pKi in experiment [1] and in experiment [2] (setting [3]) was at least 5.30 each time.
Consider `Cc1cc(C)cc(Nc2nccc(-c3ncc(C(=O)O)s3)n2)c1` [Example I-118], for which the pKi in experiment [1] and in experiment [2] (setting [3]) was at least 5.30 throughout.
In the case of `Cc1cc(C)cc(Nc2nccc(-c3nc(C)c(CCOC4CCCCO4)s3)n2)c1` (stereo not shown) [Example I-119], the pKi in experiment [1] and in experiment [2] (setting [3]) was at least 5.30 each time.
In the case of `Cc1cnc(-c2ccnc(Nc3ccc(C(C)(C)C)cc3)n2)s1` [Example I-120], the pKi in experiment [1] and in experiment [2] (setting [3]) was at least 5.30 each time.
Take `COC(=O)c1cc(Nc2nccc(-c3ncc(C)s3)n2)cc(C(=O)OC)c1` [Example I-121]: the pKi in experiment [1] and in experiment [2] (setting [3]) was at least 5.30 throughout.
With `COc1cc(Nc2nccc(-c3ncc(C)s3)n2)cc(OC)c1OC` [Example I-122], the pKi in experiment [1] and in experiment [2] (setting [3]) was at least 5.30 throughout.
As for `Cc1cc(C)cc(Nc2nccc(-c3nc(C)c(CCO)s3)n2)c1` [Example I-123], the pKi in experiment [1] and in experiment [2] was at least 5.30 in each case.
Regarding `Cc1cc(C)cc(Nc2nccc(-c3ncc(CNc4cccnc4)s3)n2)c1` [Example I-124], the pKi in experiment [1] and in experiment [2] (setting [3]) was at least 5.30 throughout.
With `Cc1cc(C)cc(Nc2nccc(-c3ncc(CNc4ccncc4)s3)n2)c1` [Example I-125], the pKi in experiment [1] and in experiment [2] (setting [3]) was at least 5.30 throughout.
`Cc1cnc(-c2ccnc(Nc3ccc4c(c3)OCCO4)n2)s1` [Example I-127]: the pKi in experiment [1] and in experiment [2] (setting [3]) was at least 5.30 throughout.
As to `Cc1cnc(-c2ccnc(Nc3ccc4[nH]nnc4c3)n2)s1` [Example I-128], the pKi in experiment [1] and in experiment [2] (setting [3]) was at least 5.30 in each case.
